Consider one molecule from ChEMBL document CHEMBL5247684, “Novel C-Linked Isoquinoline Amides as LRRK2 Inhibitors for Treating Parkinson's Disease” (ACS Med Chem Lett, 2023).

This experiment deals with Leucine-rich repeat serine/threonine-protein kinase 2 (Homo sapiens, UniProt Q5S007, G2019S). In words: Inhibition of GST20-tagged truncated human LRRK2 G2019S mutant using fluorescein labeled LRRKtide peptide as substrate by Lantha screen assay.

Broadly, the IC50 is the concentration that inhibits the measured activity by half. Low values mean greater potency in that assay, high ones weaker potency in that assay.

Leucine-rich repeat serine/threonine-protein kinase 2, sequence (Q5S007 whole entry G2019S, the tested form may be a part): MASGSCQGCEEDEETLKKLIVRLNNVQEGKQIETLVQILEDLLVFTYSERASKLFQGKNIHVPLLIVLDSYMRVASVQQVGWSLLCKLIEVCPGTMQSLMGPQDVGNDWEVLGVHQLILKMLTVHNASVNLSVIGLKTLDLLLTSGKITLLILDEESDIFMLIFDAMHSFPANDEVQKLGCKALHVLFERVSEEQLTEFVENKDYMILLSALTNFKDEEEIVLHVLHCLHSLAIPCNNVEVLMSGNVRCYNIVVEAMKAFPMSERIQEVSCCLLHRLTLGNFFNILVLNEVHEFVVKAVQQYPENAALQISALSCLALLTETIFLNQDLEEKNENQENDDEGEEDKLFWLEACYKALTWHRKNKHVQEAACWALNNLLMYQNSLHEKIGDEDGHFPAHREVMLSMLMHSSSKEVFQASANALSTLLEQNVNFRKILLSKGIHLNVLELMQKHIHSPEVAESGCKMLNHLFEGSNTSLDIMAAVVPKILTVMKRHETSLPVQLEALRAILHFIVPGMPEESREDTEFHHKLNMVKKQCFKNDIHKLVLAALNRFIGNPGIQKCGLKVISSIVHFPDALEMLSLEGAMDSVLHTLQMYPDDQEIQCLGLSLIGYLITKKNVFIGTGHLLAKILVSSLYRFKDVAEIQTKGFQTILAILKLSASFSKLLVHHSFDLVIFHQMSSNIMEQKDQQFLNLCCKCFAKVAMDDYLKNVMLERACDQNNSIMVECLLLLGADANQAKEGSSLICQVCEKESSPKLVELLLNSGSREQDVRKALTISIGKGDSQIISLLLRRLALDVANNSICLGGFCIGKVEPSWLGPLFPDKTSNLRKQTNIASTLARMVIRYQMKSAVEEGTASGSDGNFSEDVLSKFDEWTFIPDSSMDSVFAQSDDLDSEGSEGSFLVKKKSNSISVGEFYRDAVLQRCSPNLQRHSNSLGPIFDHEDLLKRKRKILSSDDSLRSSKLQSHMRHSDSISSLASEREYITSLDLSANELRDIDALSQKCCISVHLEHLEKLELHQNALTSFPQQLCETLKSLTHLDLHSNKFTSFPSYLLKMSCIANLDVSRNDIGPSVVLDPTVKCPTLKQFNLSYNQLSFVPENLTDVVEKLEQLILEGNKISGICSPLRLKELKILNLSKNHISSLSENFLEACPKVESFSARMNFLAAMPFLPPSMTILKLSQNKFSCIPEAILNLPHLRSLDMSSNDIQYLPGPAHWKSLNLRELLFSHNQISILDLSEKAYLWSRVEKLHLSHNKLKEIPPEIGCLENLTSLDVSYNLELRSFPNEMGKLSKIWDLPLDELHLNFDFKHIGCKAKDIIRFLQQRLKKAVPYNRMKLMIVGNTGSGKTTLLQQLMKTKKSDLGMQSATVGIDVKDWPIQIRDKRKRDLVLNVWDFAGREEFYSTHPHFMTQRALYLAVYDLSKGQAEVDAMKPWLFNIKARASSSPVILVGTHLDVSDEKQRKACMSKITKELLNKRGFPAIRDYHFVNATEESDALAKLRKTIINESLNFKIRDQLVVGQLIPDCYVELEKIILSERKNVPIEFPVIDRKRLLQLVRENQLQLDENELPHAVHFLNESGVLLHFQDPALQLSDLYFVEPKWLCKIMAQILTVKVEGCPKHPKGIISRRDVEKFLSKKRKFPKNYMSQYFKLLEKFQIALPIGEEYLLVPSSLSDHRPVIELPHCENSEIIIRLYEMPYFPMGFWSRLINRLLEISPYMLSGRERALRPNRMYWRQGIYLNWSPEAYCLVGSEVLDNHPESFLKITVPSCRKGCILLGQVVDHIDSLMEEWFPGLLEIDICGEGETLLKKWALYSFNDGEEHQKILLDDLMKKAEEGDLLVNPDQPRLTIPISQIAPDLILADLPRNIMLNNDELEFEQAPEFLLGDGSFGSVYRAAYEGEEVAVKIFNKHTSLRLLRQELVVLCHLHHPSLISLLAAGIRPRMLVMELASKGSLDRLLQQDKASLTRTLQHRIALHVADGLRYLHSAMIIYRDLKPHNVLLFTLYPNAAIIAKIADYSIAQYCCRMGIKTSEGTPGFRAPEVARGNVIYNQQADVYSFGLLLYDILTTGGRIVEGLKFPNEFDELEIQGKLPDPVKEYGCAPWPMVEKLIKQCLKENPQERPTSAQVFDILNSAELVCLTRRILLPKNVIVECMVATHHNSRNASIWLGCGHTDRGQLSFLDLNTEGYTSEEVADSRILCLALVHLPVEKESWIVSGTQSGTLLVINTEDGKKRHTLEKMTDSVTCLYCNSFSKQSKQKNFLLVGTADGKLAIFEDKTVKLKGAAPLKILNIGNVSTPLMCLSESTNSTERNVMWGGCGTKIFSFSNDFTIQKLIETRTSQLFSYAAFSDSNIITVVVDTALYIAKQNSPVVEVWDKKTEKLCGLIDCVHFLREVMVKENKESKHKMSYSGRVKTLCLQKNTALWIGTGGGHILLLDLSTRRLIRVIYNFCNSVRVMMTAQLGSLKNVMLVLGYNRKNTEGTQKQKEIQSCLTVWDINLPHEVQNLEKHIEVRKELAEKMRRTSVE

`C[C@@]1(N2CC[C@@H](c3cc4cc(NC(=O)C5CC56CC6)ncc4cc3Cl)[C@H](F)C2)COC[C@@H]1O` (stereo partly specified) gave an IC50 of 0.0813 nM. In other words, the picomolar range.
